This is an account of results in US9447100B2, “Substituted pyrazolo[1,5-A] pyrimidines as calcium receptor modulating agents” (Takeda Pharmaceutical Company Limited, priority 2002, dated 2016).

The melting point is the temperature, or range, at which the solid turns liquid.

Structures can show the parent of a compound that is named as a salt. Where only a bound is given, the exact number is not on record here.

As for `CC1(C)CC(c2ccccc2)Nc2c(C(=O)NC(C3CCCCC3)C3CCCCC3)cnn21` (centres unmarked) [Example 433, N-(dicyclohexylmethyl)-7,7-dimethyl-5-phenyl-4,5,6,7-tetrahydropyrazolo[1,5-a]pyrimidine-3-carboxamide], the melting point was 187 to 188 °C.
With `CCC(CC)(NC(=O)c1cnn2c1NC(c1ccccc1)CC2(C)C)c1ccc(CCC(=O)O)cc1` (centres unmarked) [Example 749, 3-(4-(1-(((7,7-dimethyl-5-phenyl-4,5,6,7-tetrahydropyrazolo[1,5-a]pyrimidin-3-yl)carbonyl)amino)-1-ethyl-propyl)phenyl)propanoic acid] the figure was 240 to 241 °C.
Take `CCC(CC)(c1ccc(C)cc1)c1nnc(-c2c(C)nn3c2N[C@@H](c2ccccc2)CC3(C)C)s1` [Example 1143, (5R)-3-(5-(1-ethyl-1-(4-methylphenyl)propyl)-1,3,4-thiadiazol-2-yl)-2,7,7-trimethyl-5-phenyl-4,5,6,7-tetrahydropyrazolo[1,5-a]pyrimidine]: the melting point was 132 to 134 °C.
With `Cc1nn2c(c1C(=O)OC1C(C)(C)[C@H]3CC[C@]1(C)C3)NC(c1ccccc1)CC2(C)C` (stereo partly drawn) (as salt: HCl) [Example 1141, (1R,4S)-1,3,3-trimethylbicyclo[2.2.1]hept-2-yl 2,7,7-trimethyl-5-phenyl-4,5,6,7-tetrahydropyrazolo[1,5-a]pyrimidine-3-carboxylate] the figure was 149 to 150 °C; with `CCOC(=O)c1cnn2c1NC(c1ccc3ccccc3c1)CC2C(F)(F)F` (centres unmarked) [Example 2, ethyl 5-(2-naphthyl)-7-(trifluoromethyl)-4,5,6,7-tetrahydropyrazolo[1,5-a]pyrimidine-3-carboxylate], 120 to 122 °C.
As for `CCC1(NC(=O)c2cnn3c2NC(c2ccccc2)CC3(C)C)CCC(C)CC1` (centres unmarked) [Example 612, N-(1-ethyl-4-methylcyclohexyl)-7,7-dimethyl-5-phenyl-4,5,6,7-tetrahydropyrazolo[1,5-a]pyrimidine-3-carboxamide], the figure is 160 to 161 °C; as for `COc1ccc(C2CC(C(F)(F)F)n3ncc(C(=O)NC45CC6CC(CC(C6)C4)C5)c3N2)cc1` (centres unmarked) [Example 202, N-(1-adamantyl)-5-(4-methoxyphenyl)-7-(trifluoromethyl)-4,5,6,7-tetrahydropyrazolo[1,5-a]pyrimidine-3-carboxamide], 241 to 243 °C; as for `COc1ccc(C2CC(C)(C)n3ncc(C(=O)O)c3N2)cc1` (centres unmarked) [Example 942, 5-(4-methoxyphenyl)-7,7-dimethyl-4,5,6,7-tetrahydropyrazolo[1,5-a]pyrimidine-3-carboxylic acid], 196 to 197 °C.
With `CCC(NC(=O)c1cnn2c1NC(c1ccccc1)CC2C(F)(F)F)c1ccccc1F` (centres unmarked) [Example 400, N-(1-(2-fluorophenyl)propyl)-5-phenyl-7-(trifluoromethyl)-4,5,6,7-tetrahydropyrazolo[1,5-a]pyrimidine-3-carboxamide], the melting point was in the range of 204 to 205 °C.
Compound `CC1(C)CC(c2ccccc2)Nc2c(C(=O)NC3(C#N)CCCCC3)cnn21` (centres unmarked) [Example 627, N-(1-cyanocyclohexyl)-7,7-dimethyl-5-phenyl-4,5,6,7-tetrahydropyrazolo[1,5-a]pyrimidine-3-carboxamide] had a melting point of over 300 °C.
`CCC(CC)(NC(=O)c1c(C)nn2c1N[C@H](c1ccccc1)CC2(C)C)c1ccc(Cl)cc1` [Example 1041, (5S)-N-(1-(4-chlorophenyl)-1-ethylpropyl)-2,7,7-trimethyl-5-phenyl-4,5,6,7-tetrahydropyrazolo[1,5-a]pyrimidine-3-carboxamide] registered a melting point of 131 to 132 °C.
As for `CCC(CC)(c1ccccc1)c1nnc(-c2c(C)nn3c2N[C@@H](c2ccccc2)CC3(C)C)s1` [Example 1145, (5R)-3-(5-(1-ethyl-1-phenylpropyl)-1,3,4-thiadiazol-2-yl)-2,7,7-trimethyl-5-phenyl-4,5,6,7-tetrahydropyrazolo[1,5-a]pyrimidine], the figure is 174 to 175 °C; as for `COc1cccc(C2CC(C(F)(F)F)n3ncc(C(=O)NC45CC6CC(CC(C6)C4)C5)c3N2)c1` (centres unmarked) [Example 280, N-(1-adamantyl)-5-(3-methoxyphenyl)-7-(trifluoromethyl)-4,5,6,7-tetrahydropyrazolo[1,5-a]pyrimidine-3-carboxamide], 211 to 212 °C; as for `CCOC(=O)c1cnn2c1NC(c1ccc(OC)cc1)CC2C(F)(F)F` (centres unmarked) [Example 3, ethyl 5-(4-methoxyphenyl)-7-(trifluoromethyl)-4,5,6,7-tetrahydropyrazolo[1,5-a]pyrimidine-3-carboxylate], 105 to 109 °C.
With `COC(=O)C1(NC(=O)c2cnn3c2N[C@H](c2ccccc2)C[C@@H]3C(F)(F)F)CCCCC1` (stereo in doubt) [Example 367, methyl 1-(((5-phenyl-7-(trifluoromethyl)-4,5,6,7-tetrahydropyrazolo[1,5-a]pyrimidin-3-yl)carbonyl)amino)cyclohexane carboxylate] the figure was 213 to 214 °C; with `CCC(CC)(NC(=O)c1c(C)nn2c1NC(c1ccccc1)CC2(C)C)c1ccc(Cl)cc1` (centres unmarked) [Example 696, N-(1-(4-chlorophenyl)-1-ethylpropyl)-2,7,7-trimethyl-5-phenyl-4,5,6,7-tetrahydropyrazolo[1,5-a]pyrimidine-3-carboxamide], 146 to 148 °C; with `Cc1ccc(C(C)(C)NC(=O)c2c(C)nn3c2NC(c2ccccc2)CC3(C)C)cc1` (centres unmarked) (as salt: HCl) [Example 794, 2,7,7-trimethyl-N-(1-methyl-1-(4-methylphenyl)ethyl)-5-phenyl-4,5,6,7-tetrahydropyrazolo[1,5-a]pyrimidine-3-carboxamide], 193 to 194 °C.
Compound `CCC(CC)(NC(=O)c1cnn2c1NC(c1ccccc1)CC2(C)C)C1CCCCC1` (centres unmarked) [Example 432, N-(1-cyclohexyl-1-ethylpropyl)-7,7-dimethyl-5-phenyl-4,5,6,7-tetrahydropyrazolo[1,5-a]pyrimidine-3-carboxamide] came in with a melting point of 130 to 131 °C.
With `CCC(CC)(NC(=O)c1cnn2c1NC(c1ccccc1)CC2(C)C)C(C)C` (centres unmarked) [Example 620, N-(1,1-diethyl-2-methylpropyl)-7,7-dimethyl-5-phenyl-4,5,6,7-tetrahydropyrazolo[1,5-a]pyrimidine-3-carboxamide], the melting point was 155 to 156 °C.
With `CC1(NC(=O)c2cnn3c2NC(c2ccccc2)CC3(C)C)CCCCC1` (centres unmarked) [Example 586, 7,7-dimethyl-N-(1-methylcyclohexyl)-5-phenyl-4,5,6,7-tetrahydropyrazolo[1,5-a]pyrimidine-3-carboxamide] the figure was 170 to 171 °C; with `CCC(CC)(NC(=O)c1c(C)nn2c1NC(c1cccc(C)c1)CC2(C)C)c1ccc(C)cc1` (centres unmarked) (as salt: HCl) [Example 974, N-(1-ethyl-1-(4-methylphenyl)propyl)-2,7,7-trimethyl-5-(3-methylphenyl)-4,5,6,7-tetrahydropyrazolo[1,5-a]pyrimidine-3-carboxamide], 120 to 123 °C.
In turn, `CCC1(NC(=O)c2cnn3c2NC(c2ccccc2)CC3(C)C)CCCCC1` (centres unmarked) [Example 431, N-(1-ethylcyclohexyl)-7,7-dimethyl-5-phenyl-4,5,6,7-tetrahydropyrazolo[1,5-a]pyrimidine-3-carboxamide] displayed a melting point of 166 to 167 °C.
`CCc1ccc(C(CC)(CC)NC(=O)c2c(C)nn3c2N[C@@H](c2ccccc2F)CC3(C)C)cc1` (as salt: HCl) [Example 1089, (5R)-N-(1-ethyl-1-(4-ethylphenyl)propyl)-5-(2-fluorophenyl)-2,7,7-trimethyl-4,5,6,7-tetrahydropyrazolo[1,5-a]pyrimidine-3-carboxamide] gave a melting point of 138 to 139 °C.
As for `CCC(CC)(NC(=O)c1cnn2c1NC(c1ccccc1)CC2(C)C)c1ccc(OCC(=O)O)cc1` (centres unmarked) [Example 731, (4-(1-(((7,7-dimethyl-5-phenyl-4,5,6,7-tetrahydropyrazolo[1,5-a]pyrimidin-3-yl)carbonyl)amino)-1-ethylpropyl)phenoxy)acetic acid], the figure is 213 to 214 °C; as for `O=C(c1cnn2c1NC(c1ccccc1)CC2C(F)(F)F)N1CCc2nn(-c3ccc(Cl)cc3)cc2C1` (centres unmarked) [Example 275, 2-(4-chlorophenyl)-5-((5-phenyl-7-(trifluoromethyl)-4,5,6,7-tetrahydropyrazolo[1,5-a]pyrimidin-3-yl)carbonyl)-4,5,6,7-tetrahydro-2H-pyrazolo[4,3-c]pyridine], 183 to 184 °C; as for `CCC(CC)(NC(=O)c1c(C)nn2c1NC(c1ccccc1)CC2(C)C)c1ccc(Cl)cc1` (centres unmarked) (as salt: HCl) [Example 723, N-(1-(4-chlorophenyl)-1-ethylpropyl)-2,7,7-trimethyl-5-phenyl-4,5,6,7-tetrahydropyrazolo[1,5-a]pyrimidine-3-carboxamide], 180 to 181 °C.
With `O=C(NCC(=O)c1cccc2ccccc12)c1cnn2c1N[C@H](c1ccccc1)C[C@@H]2C(F)(F)F` (stereo in doubt) [Example 286, N-(2-(1-naphthyl)-2-oxoethyl)-5-phenyl-7-(trifluoromethyl)-4,5,6,7-tetrahydropyrazolo[1,5-a]pyrimidine-3-carboxamide] the figure was 141 to 142 °C; with `CC(NC(=O)c1cnn2c1N[C@H](c1ccccc1)C[C@@H]2C(F)(F)F)C(=O)c1ccccc1` (stereo in doubt) [Example 291, N-(1-methyl-2-oxo-2-phenylethyl)-5-phenyl-7-(trifluoromethyl)-4,5,6,7-tetrahydropyrazolo[1,5-a]pyrimidine-3-carboxamide], 178 to 179 °C; with `CCC(CC)(NC(=O)c1c(C)nn2c1NC(c1ccc(OC)cc1)CC2(C)C)c1ccc(C)cc1` (centres unmarked) (as salt: HCl) [Example 967, N-(1-ethyl-1-(4-methylphenyl)propyl)-5-(4-methoxyphenyl)-2,7,7-trimethyl-4,5,6,7-tetrahydropyrazolo[1,5-a]pyrimidine-3-carboxamide], 153 to 154 °C.
